In test [1] the test system is Experimental Autoimmune Encephalomyelitis (EAE). The test is described as follows: Chronic-progressive EAE, weekly treatment for 4 weeks (Example 2). It counts as in vivo, Hartley guinea pigs. The protocol:
In the present experiment, female juvenile Hartley guinea pigs (225 g) were immunized with homogenized whole CNS (in saline) with an equal amount of complete Freund's Adjuvant and 10 mg added killed M. tuberculosis. The animals (>95%) show clinical signs starting on day 7 post immunization. An acute event of varying severity occurs between day 7 and day 20 followed by a continuous accumulation of clinical abnormality with hind limb paralysis, fecal impaction and incontinence. […] These clinical features indicate inflammation-induced lumbar spinal cord demyelination.
In these experiments, the immunized animals were nursed until day 40 or day 52 and then treated with 8 mg/kg and 16 mg/kg Symadex™ (intra cardiac), or 20 mg/kg and 40 mg/kg Symadex™ (i.p.) once a week for 4 weeks. Controls were given vehicle. Clinical signs were scored daily and the weights recorded. At the completion of the treatment period, the brain and spinal cord were dissected, formalin fixed and blocked for routine pathological examination of meningeal inflammation, perivascular infiltration (cuffing), parenchymal myelitis and demyelination by a blinded observer using hematoxylin-eosin and solochrome R cyanin stained sections.
Untreated, chronic EAE animals (n=5) were sacrificed on day 40, as well as non-EAE controls (n=5). Following each 10-day treatment interval, five animals from each group were sacrificed (0.25 ml sodium pentobarbital), blood samples were collected for FACS analysis (see below), and the brain and spinal cord dissected and sectioned. Three spinal sections were used, corresponding to lumbar, thoracic and cervical regions of the cord. The brain was cut into five transverse sections; the first three proximal sections were combined in one block, and the last two distal sections in another. Tissues were fixed in 10% formalin and embedded in paraffin. Five micrometer sections were stained with hematoxylin-eosin (H-E) or solochrome-R-cyanin (SCR) and evaluated by a blinded observer in each of the four categories: meningeal inflammation, perivascular infiltration, encephalitis or myelitis and demyelination (Table 2). The combined pathological score represents the total score (out of a potential 20) from all five CNS sections in each animal.
To quantify the abnormalities observed in the spinal cord, sections stained with H-E were divided into 12 representative pie-shaped areas. In each area, the number of cells within a 0.12-mm^2 field of view was counted using Sigma Scan Pro image analysis software (SPSS), and the combined mean number of cell in all 12 areas was calculated for the whole spinal cord (36 fields of view per animal). Note that as all cell nuclei were counted, the number of cells may include neurons and glial cells in addition to infiltrates.

Test [2] concerns Collagen Antibody Induced Arthritis. Description: Collagen monoclonal antibody (mABs) + LPS induced arthritis, hind paw volume. It counts as in vivo, BALB/c strain mice. The note with it: for increase in hind paw volume: oral once daily for 3 days, 30 mg/kg. As to the method:
Groups of 3 BALB/c strain mice, 6-7 weeks of age, were used for the induction of arthritis by monoclonal antibodies (mABs) raised against type II collagen, plus lipopolysaccharide (LPS). A combination of 4 different mABs (D8, F10, DI-2G and A2) totaling 4 mg/mouse was administered to the animal intravenously on day 0, followed by intravenous challenge with […] of LPS 72 hours later (day 3). From day 3, test substance and vehicle were each administered orally once daily for 3 consecutive days. For each animal, volumes of both hind paws were measured using a plethysmometer with water cell (12 mm diameter) on Days 0, 5, 7, 10, 14 and 17. Percent inhibition of increase in volume induced by mABs+LPS was calculated by the following formula: Inhibition (%): [1−(Tn−T0)/(Cn−C0)]×100% Where: […]
C0(Cn): volume of day 0 (day n) in vehicle control
T0(Tn): volume of day 0 (day n) in test compound-treated group
Reduction of edema in the hind paws by 30% or more is considered significant.

In test [3] the test system is HT29 cell line. The test is described as follows: GI50 concentration in HT29 cells. It counts as cell-based. Particulars: Homo sapiens, HT-29.
Where [4] appears, read: CNS histopathology after treatment.

For orientation: GI50 means the concentration giving 50% growth inhibition. Low values mean more potent growth inhibition, high ones less potent growth inhibition.

With `CCN(CC)CCNc1ccc2ncn3c4ccc(O)cc4c(=O)c1c23` [Symadex™, 5-[[(diethylamino)ethyl]amino]-8-hydroxyimidazo[4,5,1-de]-acridine-6-one], the “time to clinical recovery from start of treatment” value in test [1] (40 mg/kg i.p. once a week) was ≤ 2 weeks. For the same molecule, in test [1] (20 and 40 mg/kg i.p. once a week for 4 weeks), the “clinical progress and pathological findings” value was “profound and substantial change in the clinical progress and pathological findings”. In test [1] (setting [4]), the “cells in existing lesions” value was “profound loss of cells”. Further, in test [1] (setting [4]), the “remyelination (myelin pallor)” value is “myelin pallor previously attributed to remyelination”. For the same molecule, the “scores for meningeal inflammation and perivascular infiltration” value in test [1] (treated groups vs vehicle controls, CNS histopathology) is “more severe in the treated groups than in vehicle controls”. Further, the “increase in hind paw volume” value in test [2] (day 5, vehicle 42%) was 32%; in test [2] (day 10, vehicle 75%) it was 29%; in test [2] (day 14, vehicle 70%), 18%; in test [2] (day 17, vehicle 47%), 19%. Further, the “inhibition of increase in paw volume” value stood at 61% in test [2] (day 10), 74% in test [2] (day 14) and 59% in test [2] (day 17). In test [3], this molecule had a GI50 of 680 nM.

The values are drawn from patent US20060189546A1, “Compounds for treating autoimmune and demyelinating diseases” (priority 2005, published 2006).
